Read-outs that look alike come from different tables or passages of the source.
Legend:
[1] = tested on: mouse peritoneal macrophages; test: Cytotoxicity examined microscopically (morphological alteration of cells); type: cell-based, mouse (female ICR); conditions: 5 μM, observed microscopically
Protocol: (§1) Activity of the compounds of the present invention for suppressing the foaming of macrophages, which triggers arterial sclerosis, was examined by an in vitro experiment using mouse peritoneal macrophages. 15-Week old female ICR mice (Nippon SLC) were subjected to bleeding by cutting off their cervicalis, and Hanks buffer (Nippon Seiyaku) was injected into their peritoneal cavities. After abdominal regions of the mice were massaged, the buffer was recovered immediately, and then the resulting buffer was centrifuged at 1,000 r.p.m. for five minutes to collect peritoneal macrophages. Then, the collected macrophages were suspended in GTI medium (Wako Pure Chemical Industries), and inoculated onto a 24-well microtiter plate. After the macrophages were cultivated at 37° C. under 5% CO2 for two hours, the culture medium was changed with Dulbecco Modified Eagle Medium (MEM, Nippon Seiyaku). The macrophages were further cultivated at 37° C. under 5% CO2 for 16 hours, and then a test compound and liposomes were added to the culture.
(§2) After cultivation was further continued at 37° C. under 5% CO2 for 16 hours, lipid fraction was extracted with chloroform and methanol. The extracted lipid fraction was dissolved in isopropyl alcohol, and the produced cholesterol ester (CE) was quantified by an enzymatic luminescence method. Yield of the cholesterol ester was calculated as a relative ratio based on yield of the control as 100% where no test compound was added. Cytotoxicity was examined microscopically by observing morphological alteration of cells. In the tables, compound numbers correspond to those of the compounds of present invention described in the examples.

[2] = tested on: mouse peritoneal macrophages; test: Suppression of foaming of macrophages (cholesterol ester synthesis) in vitro; type: cell-based, mouse (female ICR); conditions: Mus musculus, Peritoneal macrophage, 5 μM, 16 hours, relative to control as 100%, smaller value = more potent suppression, read-out: Rate of CE synthesis (%)
Protocol: Activity of the compounds of the present invention for suppressing the foaming of macrophages
as §1
1) Test compound: dissolved in DMSO (Wako Pure Chemical Industries),
PC: Phosphatidylcholine (Funakoshi);
PS: Phosphatidylserine (Funakoshi);
DCP: Dicetylphosphate (Funakoshi);
CHOL: Cholesterol (Sigma)
as §2

Row | Structure (SMILES) | Cytotoxicity ([1]; Table 4) | activity at 5 µM ([2]; Table 4) | Cytotoxicity ([1]; Table 3) | activity at 5 µM ([2]; Table 3)
1 | c1ccc(-c2cnc(SCCCCCSc3nc4ccccc4[nH]3)n2-c2ccccc2)cc1 [Compound B4] | Not observed | 47% |  | 
2 | c1ccc2[nH]c(SCCCCCSC3=NCCS3)nc2c1 [Compound B15] | Not observed | 11% |  | 
3 | Cc1nnc(SCCCCCSc2nc3ccccc3[nH]2)o1 [Compound B25] | Not observed | 41% |  | 
4 | c1ccc(-c2ccc3oc(SCCCCCSc4nc5ccccc5[nH]4)nc3c2)cc1 [Compound A39, 1-(2'-benzimidazolylthio)-5-(2"-(5"-phenylbenzoxazolyl)thio)pentane] |  |  | Not observed | 24%
5 | FC(F)(F)c1ccc2c(SCCCCCSc3nc4ccccc4[nH]3)ccnc2c1 [Compound B63] | Not observed | 15% |  | 
6 | CCC(=O)Nc1ccc2[nH]c(SCCCCCSc3nc4ccccc4[nH]3)nc2c1 [Compound A8, 1-(2'-benzimidazolylthio)-5-(2"-(5"-propionylaminobenzimidazolyl)thio)pentane] |  |  | Not observed | 24%
7 | Cc1ccc2[nH]c(SCCCCCCCCSc3nc4ccccc4[nH]3)nc2c1 [Compound A20, 1-(2'-(5'-methylbenzimidazolyl)thio)-8-(2"-benzimidazolylthio)octane] |  |  | Not observed | 61%
8 | c1ccc(SCCOCCSc2nc3ccccc3[nH]2)nc1 [Compound B67] | Not observed | 54% |  | 
9 | Clc1cc2nc(SCCCCCSc3nc4ccccc4[nH]3)[nH]c2cc1Cl [Compound A11, 1-(2'-(5',6'-dichlorobenzimidazolyl)thio)-5-(2"-benzimidazolylthio)pentane] |  |  | Not observed | 9%
10 | CC(=O)Nc1nnc(SCCCCCSc2nc3ccccc3[nH]2)n1C [Compound B9] | Not observed | 35% |  | 
11 | FC(F)(F)c1cc2[nH]c(SCCCCCSc3nc4ccccc4[nH]3)nc2cc1Cl [Compound A16, 1-(2'-(5'-chloro-6'-trifluoromethylbenzimidazolyl)thio)-5-(2"-benzimidazolylthio)pentane] |  |  | Not observed | 34%
12 | Cn1cnnc1SCCCCCSc1nc2ccccc2[nH]1 [Compound B6] | Not observed | 22% |  | 
13 | S=c1sc(SCCCCCSc2nc3ccccc3[nH]2)nn1-c1ccccc1 [Compound B22] | Not observed | 21% |  | 
14 | c1ccc2[nH]c(SCCCCCSc3ccncc3)nc2c1 [Compound B28] | Not observed | 7.6% |  | 
15 | O=[N+]([O-])c1ccnc(SCCCCCSc2nc3ccccc3[nH]2)c1 [Compound B42] | Not observed | 12% |  | 
16 | O=[N+]([O-])c1ccc2[nH]c(CCCCCSc3ccccn3)nc2c1 [Compound B46] | Not observed | 36% |  | 
17 | c1cnc2c(SCCCCCSc3nc4ccccc4[nH]3)cccc2c1 [Compound B62] | Not observed | 25% |  | 
18 | c1ccc(SCCCCCCSc2nc3ccccc3[nH]2)nc1 [Compound B31] | Not observed | 27% |  | 
19 | CCC(=O)n1c(SCCCCCSc2nc3cc(S(=O)(=O)NC)ccc3n2C)nc2ccccc21 [Compound A25] |  |  | Not observed | 32%
20 | Cc1ccc2[nH]c(SCCCCSc3nc4ccccc4[nH]3)nc2c1 [Compound A18, 1-(2'-(5'-methylbenzimidazolyl)thio)-4-(2"-benzimidazolylthio)butane] |  |  | Not observed | 52%
21 | COc1ccc2[nH]c(SCCCCCSc3nc4cc(C)ccc4[nH]3)nc2c1 [Compound A4, 1-(2'-(5'-methoxybenzimidazolyl)thio)-5-(2"-(5"-methylbenzimidazolyl)thio)pentane] |  |  | Not observed | 41%
22 | c1ccc2[nH]c(SCCCCCSc3nnc(-c4ccncc4)o3)nc2c1 [Compound B24] | Not observed | 9.5% |  | 
23 | CCCCCCCCn1nnnc1SCCCCCSc1nc2ccccc2[nH]1 [Compound B11] | Not observed | 18% |  | 
24 | Clc1cc2nc(SCCCCCCSc3nc4ccccc4[nH]3)[nH]c2cc1Cl [Compound A12, 1-(2'-(5',6'-dichlorobenzimidazolyl)thio)-6-(2"-benzimidazolylthio)hexane] |  |  | Not observed | 42%

Row | Structure (SMILES) | Cytotoxicity ([1]; Table 4) | activity at 5 µM ([2]; Table 4) | Cytotoxicity ([1]; Table 3) | activity at 5 µM ([2]; Table 3)
25 | [O-][n+]1ccccc1SCCCCCSc1nc2ccccc2[nH]1 [Compound B40] | Not observed | 25% |  | 
26 | CSc1nnc(SCCCCCSc2nc3ccccc3[nH]2)s1 [Compound B19] | Not observed | 21% |  | 
27 | c1ccc(-n2ccnc2SCCCCCSc2nc3ccccc3[nH]2)cc1 [Compound B3] | Not observed | 34% |  | 
28 | Cc1nnc(SCCCCCSc2nc3ccccc3[nH]2)n1C [Compound B8] | Not observed | 24% |  | 
29 | CS(=O)(=O)Nc1ccc2[nH]c(SCCCCCSc3ccccn3)nc2c1 [Compound B38] | Not observed | 22% |  | 
30 | CN(C)C(=O)c1ccc2[nH]c(SCCCCCSc3ccccn3)nc2c1 [Compound B39] | Not observed | 28% |  | 
31 | Cc1cc2nc(CCCCCSc3ccccn3)[nH]c2cc1C [Compound B45] | Not observed | 48% |  | 
32 | c1ccc2[nH]c(CCCCCCCSc3nc4ccccc4[nH]3)nc2c1 [Compound A31, 2-(7-(2'-benzimidazolylthio)heptyl)benzimidazole] |  |  | Not observed | 53%
33 | O=[N+]([O-])c1ccc2[nH]c(CCCCCSc3nc4ccccc4[nH]3)nc2c1 [Compound A30] |  |  | Not observed | 52%
34 | Cn1nnnc1SCCCCCSc1nc2ccccc2[nH]1 [Compound B10] | Not observed | 32% |  | 
35 | Cc1cc2nc(SCCCCCSc3ccccn3)[nH]c2cc1C [Compound B33] | Not observed | 18% |  | 
36 | c1ccc(-c2nnc(SCCCCCSc3nc4ccccc4[nH]3)o2)cc1 [Compound B26] | Not observed | 12% |  | 
37 | c1ccc2[nH]c(SCCCCCSc3nnc[nH]3)nc2c1 [Compound B5] | Not observed | 14% |  | 
38 | Clc1ccc2sc(SCCCCCSc3nc4ccccc4[nH]3)nc2c1 [Compound A34, 1-(2'-benzimidazolylthio)-5-(2"-(5"-chlorobenzothiazolyl)thio)pentane] |  |  | Not observed | 28%
39 | Cc1ccc2[nH]c(SCCCCCCSc3nc4ccccc4[nH]3)nc2c1 [Compound A19, 1-(2'-(5'-methylbenzimidazolyl)thio)-6-(2"-benzimidazolylthio)hexane] |  |  | Not observed | 54%
40 | CCC(=O)Nc1ccc2[nH]c(SCCCCCSc3ccccn3)nc2c1 [Compound B37] | Not observed | 20% |  | 
41 | Cn1c(SCCCCCSc2ccccn2)nc2ccccc21 [Compound B64, 5-(2'-(1'-methylbenzimidazolyl)thio)-1-(2"-pyridylthio)pentane] | Not observed | 24% |  | 
42 | c1ccc(SCCCCSc2nc3ccccc3[nH]2)nc1 [Compound B29] | Not observed | 14% |  | 
43 | Clc1cc2nc(SCCCCCCCCSc3nc4ccccc4[nH]3)[nH]c2cc1Cl [Compound A13, 1-(2'-(5',6'-dichlorobenzimidazolyl)thio)-8-(2"-benzimidazolylthio)octane] |  |  | Not observed | 58%
44 | CNS(=O)(=O)c1ccc2c(c1)nc(SCCCCCSc1ccccn1)n2C [Compound B66] | Not observed | 52% |  | 
45 | CCOc1ccc2nc(SCCCCCSc3nc4ccccc4[nH]3)sc2c1 [Compound A35, 1-(2'-benzimidazolylthio)-5-(2"-(6"-ethoxybenzothiazolyl)thio)pentane] |  |  | Not observed | 25%
46 | c1ccc(SCCCCCCCCCCCc2nc3ccccc3[nH]2)nc1 [Compound B48] | Not observed | 41% |  | 
47 | c1ccc(SCCCCCSc2nc3ccccc3[nH]2)nc1 [Compound B30, 5-(2'-Benzimidazolylthio)-1-(2"-pyridylthio)pentane] | Not observed | 9% |  | 
48 | c1ccc(-n2cnnc2SCCCCCSc2nc3ccccc3[nH]2)cc1 [Compound B7] | Not observed | 21% |  | 

From patent publication US6174907A, “Benzimidazole compounds containing 1,2,4-triazole ring, and compositions and methods of use containing the same” (Fuji Photo Film Co., Ltd., priority 1995, dated 2001)
